This passage reports IC50 results from publication PMC8303674, “Discovery of a Novel Triazolopyridine Derivative as a Tankyrase Inhibitor” (International Journal of Molecular Sciences, 2021).

For orientation: IC50 means the concentration at which inhibition is half-maximal.

The target in test [1] is T1, TNKS2 (tankyrase 2) (Homo sapiens, UniProt Q9H2K2).
T1 sequence (Q9H2K2 1-1166): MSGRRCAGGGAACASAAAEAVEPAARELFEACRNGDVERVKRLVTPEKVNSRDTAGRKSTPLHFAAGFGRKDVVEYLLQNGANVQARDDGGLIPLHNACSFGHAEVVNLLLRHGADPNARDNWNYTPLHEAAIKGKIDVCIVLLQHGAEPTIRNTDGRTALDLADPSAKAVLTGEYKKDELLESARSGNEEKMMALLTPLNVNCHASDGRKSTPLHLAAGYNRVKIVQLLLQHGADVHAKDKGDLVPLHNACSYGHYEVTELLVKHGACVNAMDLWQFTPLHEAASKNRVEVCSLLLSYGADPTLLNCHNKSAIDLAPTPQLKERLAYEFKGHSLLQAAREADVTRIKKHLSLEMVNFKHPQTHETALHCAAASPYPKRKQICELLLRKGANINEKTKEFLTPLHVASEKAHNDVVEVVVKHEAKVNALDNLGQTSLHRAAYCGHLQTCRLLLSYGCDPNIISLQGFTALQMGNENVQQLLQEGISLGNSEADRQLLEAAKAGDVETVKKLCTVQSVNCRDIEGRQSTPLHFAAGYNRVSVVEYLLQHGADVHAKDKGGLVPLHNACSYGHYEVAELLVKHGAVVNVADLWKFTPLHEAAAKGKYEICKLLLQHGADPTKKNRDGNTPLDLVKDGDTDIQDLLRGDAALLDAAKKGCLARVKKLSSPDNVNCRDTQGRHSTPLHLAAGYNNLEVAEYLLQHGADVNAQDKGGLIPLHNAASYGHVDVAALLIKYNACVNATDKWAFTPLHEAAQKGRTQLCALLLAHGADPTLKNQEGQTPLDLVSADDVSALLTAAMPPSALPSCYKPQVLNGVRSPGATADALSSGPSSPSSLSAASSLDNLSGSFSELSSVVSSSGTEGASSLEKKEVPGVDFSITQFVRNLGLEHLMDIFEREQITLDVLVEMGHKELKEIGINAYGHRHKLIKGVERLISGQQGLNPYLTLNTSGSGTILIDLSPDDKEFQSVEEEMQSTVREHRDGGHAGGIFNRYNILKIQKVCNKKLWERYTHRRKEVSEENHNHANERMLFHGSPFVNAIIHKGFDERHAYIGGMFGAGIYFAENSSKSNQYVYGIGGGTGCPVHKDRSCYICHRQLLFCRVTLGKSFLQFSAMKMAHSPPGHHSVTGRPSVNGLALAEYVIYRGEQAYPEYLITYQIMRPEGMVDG
The test can be described thus: cell-free colorimetric TNKS2 activity assay (BPS Bioscience). In kind it is biochemical. An excerpt: cell-free colorimetric TNKS2 activity assay (BPS Bioscience) on TNKS2 (tankyrase 2) | IC50 (μM) of TI-12403 against TNKS1 and TNKS2.

Test [2] addresses T2, TNKS1 (tankyrase) (Homo sapiens, UniProt O95271).
T2 construct: gene TNKS
The experiment in a line: cell-free colorimetric TNKS1 activity assay (BPS Bioscience). In kind it is biochemical. An excerpt: cell-free colorimetric TNKS1 activity assay (BPS Bioscience) on TNKS1 (tankyrase) | IC50 (μM) of TI-12403 against TNKS1 and TNKS2.

T2 sequence (O95271 whole entry): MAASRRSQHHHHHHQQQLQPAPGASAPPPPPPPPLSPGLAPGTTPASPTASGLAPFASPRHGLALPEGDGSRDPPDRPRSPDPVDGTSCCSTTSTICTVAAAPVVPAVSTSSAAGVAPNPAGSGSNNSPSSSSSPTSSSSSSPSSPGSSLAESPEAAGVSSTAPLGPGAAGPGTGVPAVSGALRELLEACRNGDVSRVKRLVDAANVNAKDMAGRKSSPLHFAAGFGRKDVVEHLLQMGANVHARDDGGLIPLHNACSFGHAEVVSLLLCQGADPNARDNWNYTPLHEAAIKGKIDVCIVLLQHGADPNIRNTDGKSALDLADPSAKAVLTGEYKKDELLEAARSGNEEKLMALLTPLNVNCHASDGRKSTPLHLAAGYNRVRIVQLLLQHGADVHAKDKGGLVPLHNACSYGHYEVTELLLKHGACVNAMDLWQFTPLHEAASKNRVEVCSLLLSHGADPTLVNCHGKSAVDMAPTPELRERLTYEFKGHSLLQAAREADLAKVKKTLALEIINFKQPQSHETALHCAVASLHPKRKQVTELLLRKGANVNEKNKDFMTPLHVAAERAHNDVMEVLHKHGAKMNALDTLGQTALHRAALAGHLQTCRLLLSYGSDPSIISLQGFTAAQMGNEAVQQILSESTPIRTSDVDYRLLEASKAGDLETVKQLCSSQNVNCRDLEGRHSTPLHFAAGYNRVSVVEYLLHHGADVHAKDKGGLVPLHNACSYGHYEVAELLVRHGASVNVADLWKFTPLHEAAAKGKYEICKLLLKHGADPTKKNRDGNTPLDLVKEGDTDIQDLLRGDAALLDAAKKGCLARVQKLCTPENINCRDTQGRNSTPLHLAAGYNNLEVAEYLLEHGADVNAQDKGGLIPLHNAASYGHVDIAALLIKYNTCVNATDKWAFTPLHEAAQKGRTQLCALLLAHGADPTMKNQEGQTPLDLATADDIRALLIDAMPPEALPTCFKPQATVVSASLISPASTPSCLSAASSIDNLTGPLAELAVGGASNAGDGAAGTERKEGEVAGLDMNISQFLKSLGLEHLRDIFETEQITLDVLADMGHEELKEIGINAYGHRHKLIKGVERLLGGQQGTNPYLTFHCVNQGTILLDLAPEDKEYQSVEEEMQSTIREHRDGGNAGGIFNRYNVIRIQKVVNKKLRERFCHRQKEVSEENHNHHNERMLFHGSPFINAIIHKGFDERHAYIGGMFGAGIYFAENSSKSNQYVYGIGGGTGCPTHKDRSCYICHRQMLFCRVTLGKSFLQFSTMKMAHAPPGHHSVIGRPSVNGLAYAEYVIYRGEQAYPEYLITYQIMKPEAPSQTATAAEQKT

Regarding `N#Cc1ccccc1N1CCC(C(=O)Nc2nnc3ccccn23)CC1` [TI-12403, N-([1,2,4]triazolo[4,3-a]pyridin-3-yl)-1-(2-cyanophenyl)piperidine-4-carboxamide], the concentration for half-maximal inhibition (IC50) in test [1] was determined as 60 nM; in test [2] it was 29 nM.
